# Data: patent US12116388B2, “Amylin receptor agonists” (Novo Nordisk A/S, priority 2022, dated 2024)
# Starred links: 1 amine or outer side, 2 acyl side, 3 side chain; linkers in the order of their positions; H or OH if unused. Residues, ends and D or L forms follow the SMILES beside them. Groups on a side chain read outwards from the residue. *: point of attachment. C18 diacid = O=C(O)CCCCCCCCCCCCCCCCC(=O)*; C16 diacid = O=C(O)CCCCCCCCCCCCCCC(=O)*; γGlu = O=C(O)[C@H](CCC(=O)[*:2])N[*:1]
# Legend:
# [1] = target: T1, human calcitonin receptor (hCTR) (Homo sapiens, UniProt P30988); test: Human calcitonin receptor (hCTR) in vitro potency assay, CRE-luciferase reporter in BHK cells; assay type: cell-based; details: BHK hCTR/CRE-Luc cells, 3 hours incubation, assay buffer with 1% ovalbumin; read-out: hCalcR potency, EC50
# T1 construct: host or cells: BHK (Baby Hamster Kidney), Hollex-1 cell line
# T1 sequence (P30988 25-474): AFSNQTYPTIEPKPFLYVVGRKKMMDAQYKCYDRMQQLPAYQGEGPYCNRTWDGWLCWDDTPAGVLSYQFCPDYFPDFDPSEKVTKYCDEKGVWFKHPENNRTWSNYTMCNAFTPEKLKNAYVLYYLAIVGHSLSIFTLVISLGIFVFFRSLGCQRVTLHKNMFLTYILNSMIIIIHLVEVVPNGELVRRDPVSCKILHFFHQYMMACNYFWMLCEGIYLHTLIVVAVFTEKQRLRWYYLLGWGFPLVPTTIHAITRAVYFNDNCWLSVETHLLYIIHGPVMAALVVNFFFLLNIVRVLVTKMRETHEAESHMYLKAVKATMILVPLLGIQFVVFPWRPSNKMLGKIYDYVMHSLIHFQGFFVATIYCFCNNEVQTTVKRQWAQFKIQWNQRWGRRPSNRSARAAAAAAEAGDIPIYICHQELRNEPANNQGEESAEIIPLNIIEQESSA
# Summary of the method: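 BHK cells stably co-expressing human calcitonin receptor and a CRE-luciferase reporter, seeded the day before, were exposed to 7-fold serial dilutions (7 concentrations, often starting near 10 nM) in DMEM/HEPES/1% ovalbumin buffer for 3 h at 37 °C. Luminescence was then read after SteadyLite Plus addition.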
# [2] = target: T2, human amylin receptor (hAMYR3) (Homo sapiens, UniProt O60896+P30988); test: Human amylin receptor (hAMYR3) in vitro potency assay, CRE-luciferase reporter in BHK cells; assay type: cell-based; details: BHK hAMYR3/CRE-Luc cells, 3 hours incubation, assay buffer with 1% ovalbumin
# T2 construct: host or cells: BHK (Baby Hamster Kidney), Hollex-1 cell line further transfected with RAMP3
# Summary of the method: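 BHK cells stably expressing human calcitonin receptor (a) plus RAMP3 and a CRE-luciferase reporter, seeded overnight, then exposed to 7-point 7-fold dilutions (often from ~10 nM) in DMEM/HEPES buffer with 1% ovalbumin for 3 h at 37 °C. Luciferase luminescence read after SteadyLite Plus addition.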
# T2 sequence (O60896 24-148, one chain of several): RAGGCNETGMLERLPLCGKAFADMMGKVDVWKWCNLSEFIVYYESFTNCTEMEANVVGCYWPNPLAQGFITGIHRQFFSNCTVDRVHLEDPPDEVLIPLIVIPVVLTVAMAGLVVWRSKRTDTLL
EC50 [1] [pM],EC50 [2] [pM],Compound
1.58,1.62,"CC[C@H](C)[C@H](NC(=O)[C@@H]1CCCN1C(=O)CNC(=O)[C@H](Cc1ccccc1)NC(=O)[C@H](CC(N)=O)NC(=O)[C@H](CC(=O)O)NC(=O)[C@H](CO)NC(=O)[C@H](CO)NC(=O)[C@H](Cc1c[nH]cn1)NC(=O)[C@H](Cc1c[nH]cn1)NC(=O)[C@H](CC(C)C)NC(=O)[C@H](Cc1ccccc1)NC(=O)[C@H](CCC(=O)O)NC(=O)[C@H](C)NC(=O)[C@H](CC(C)C)NC(=O)[C@H](CCCNC(=N)N)NC(=O)[C@H](C)NC(=O)[C@@H](NC(=O)[C@H](CCC(N)=O)NC(=O)[C@H](C)NC(=O)[C@@H](NC(=O)[C@H](CO)NC(=O)[C@H](CC(C)C)NC(=O)[C@H](C)NC(=O)[C@H](CO)NC(=O)[C@H](C)NC(=O)CC[C@H](NC(=O)CCCCCCCCCCCCCCCCC(=O)O)C(=O)O)[C@@H](C)O)[C@@H](C)O)C(=O)N[C@@H](CC(C)C)C(=O)N1CCC[C@H]1C(=O)N1CCC[C@H]1C(=O)N[C@H](C(=O)N[C@@H](CC(=O)O)C(=O)N[C@H](C(=O)NCC(=O)N[C@@H](CO)C(=O)N[C@@H](CC(N)=O)C(=O)N[C@H](C(=O)N1CCC[C@H]1C(N)=O)[C@@H](C)O)C(C)C)[C@@H](C)O [Compound 23, N^1-[(4S)-4-carboxy-4-(17-carboxyheptadecanoylamino)butanoyl]-[Ala1,Ser2,Ala3,Leu4,Ser5,Ala7,Gln8,Ala10,Glu14,His17,Asp21,Pro25,Pro28,Pro29,Asp31,Pro37]-human amylin] ({C18 diacid-γGlu}-ASALSTAQTARLAEFLHHSSDNFGPILPPTDVGSNTP-NH2)"
2.19,1.31,"CC[C@H](C)[C@H](NC(=O)[C@H](C)NC(=O)CNC(=O)[C@H](Cc1ccccc1)NC(=O)[C@@H]1CCCN1C(=O)[C@H](CC(=O)O)NC(=O)[C@H](CO)NC(=O)[C@H](CO)NC(=O)[C@H](Cc1c[nH]cn1)NC(=O)[C@H](Cc1c[nH]cn1)NC(=O)[C@H](CC(C)C)NC(=O)[C@H](Cc1ccccc1)NC(=O)[C@H](CCC(=O)O)NC(=O)[C@H](C)NC(=O)[C@H](CC(C)C)NC(=O)[C@H](CCCNC(=N)N)NC(=O)[C@H](CCC(N)=O)NC(=O)[C@@H](NC(=O)[C@H](CCC(N)=O)NC(=O)[C@H](C)NC(=O)[C@@H](NC(=O)[C@H](CO)NC(=O)[C@H](CC(C)C)NC(=O)[C@H](Cc1c[nH]cn1)NC(=O)[C@H](CO)NC(=O)[C@H](C)NC(=O)CC[C@H](NC(=O)CCCCCCCCCCCCCCCCC(=O)O)C(=O)O)[C@@H](C)O)[C@@H](C)O)C(=O)N1CCC[C@H]1C(=O)N[C@@H](CO)C(=O)N[C@@H](CO)C(=O)N[C@H](C(=O)N[C@@H](CC(=O)O)C(=O)N[C@H](C(=O)NCC(=O)N1CCC[C@H]1C(=O)N[C@@H](CC(N)=O)C(=O)N[C@H](C(=O)N1CCC[C@H]1C(N)=O)[C@@H](C)O)C(C)C)[C@@H](C)O [Compound 26, N^1-[(4S)-4-carboxy-4-(17-carboxyheptadecanoylamino)butanoyl]-[Ala1,Ser2,His3,Leu4,Ser5,Ala7,Gln8,Glu14,His17,Asp21,Pro22,Pro27,Asp31,Pro34,Pro37]-human amylin] ({C18 diacid-γGlu}-ASHLSTAQTQRLAEFLHHSSDPFGAIPSSTDVGPNTP-NH2)"

# More lines, now with the values behind:
Compound,EC50 [1] [pM],EC50 [2] [pM]
"CC[C@H](C)[C@H](NC(=O)[C@H](CCCCNC(=O)CC[C@H](NC(=O)CCCCCCCCCCCCCCCCC(=O)O)C(=O)O)NC(=O)CNC(=O)[C@H](Cc1ccccc1)NC(=O)[C@@H]1CCCN1C(=O)[C@H](CC(=O)O)NC(=O)[C@H](CO)NC(=O)[C@H](CO)NC(=O)[C@H](Cc1c[nH]cn1)NC(=O)[C@H](Cc1c[nH]cn1)NC(=O)[C@H](CC(C)C)NC(=O)[C@H](Cc1ccccc1)NC(=O)[C@H](CCC(=O)O)NC(=O)[C@H](C)NC(=O)[C@H](CC(C)C)NC(=O)[C@H](CCCNC(=N)N)NC(=O)[C@H](CCC(N)=O)NC(=O)[C@@H](NC(=O)[C@H](CCC(N)=O)NC(=O)[C@H](C)NC(=O)[C@@H](NC(=O)[C@H](CO)NC(=O)[C@H](CC(C)C)NC(=O)[C@H](CCC(N)=O)NC(=O)[C@H](CO)NC(=O)[C@H](C)NC(C)=O)[C@@H](C)O)[C@@H](C)O)C(=O)N1CCC[C@H]1C(=O)N[C@@H](CO)C(=O)N[C@@H](CO)C(=O)N[C@H](C(=O)N[C@@H](CC(=O)O)C(=O)N[C@H](C(=O)NCC(=O)N1CCC[C@H]1C(=O)N[C@@H](CC(=O)O)C(=O)N[C@H](C(=O)N1CCC[C@H]1C(N)=O)[C@@H](C)O)C(C)C)[C@@H](C)O [Compound 19, N^1-acetyl,N{Epsilon-25}-[(4S)-4-carboxy-4-(17-carboxyheptadecanoylamino)butanoyl]-[Ala1,Ser2,Gln3,Leu4,Ser5,Ala7,Gln8,Glu14,His17,Asp21,Pro22,Lys25,Pro27,Asp31,Pro34,Asp35,Pro37]-human amylin] (Ac-ASQLSTAQTQRLAEFLHHSSDPFGK([γGlu-C18 diacid])IPSSTDVGPDTP-NH2)",1,1.5
"CC[C@H](C)[C@H](NC(=O)[C@@H]1CCCN1C(=O)CNC(=O)[C@H](Cc1ccccc1)NC(=O)[C@H](CC(N)=O)NC(=O)[C@H](CC(=O)O)NC(=O)[C@H](CO)NC(=O)[C@H](CO)NC(=O)[C@H](Cc1c[nH]cn1)NC(=O)[C@H](Cc1c[nH]cn1)NC(=O)[C@H](CC(C)C)NC(=O)[C@H](Cc1ccccc1)NC(=O)[C@H](CCC(=O)O)NC(=O)[C@H](C)NC(=O)[C@H](CC(C)C)NC(=O)[C@H](CCCNC(=N)N)NC(=O)[C@H](C)NC(=O)[C@@H](NC(=O)[C@H](CCC(N)=O)NC(=O)[C@H](C)NC(=O)[C@@H](NC(=O)[C@H](CO)NC(=O)[C@H](CC(C)C)NC(=O)[C@H](Cc1c[nH]cn1)NC(=O)[C@H](CO)NC(=O)[C@H](C)NC(=O)CC[C@H](NC(=O)CCCCCCCCCCCCCCC(=O)O)C(=O)O)[C@@H](C)O)[C@@H](C)O)C(=O)N[C@@H](CC(C)C)C(=O)N1CCC[C@H]1C(=O)N1CCC[C@H]1C(=O)N[C@H](C(=O)N[C@@H](CC(=O)O)C(=O)N[C@H](C(=O)NCC(=O)N[C@@H](CO)C(=O)N[C@@H](CC(N)=O)C(=O)N[C@H](C(=O)N1CCC[C@H]1C(N)=O)[C@@H](C)O)C(C)C)[C@@H](C)O [Compound 20, N^1-[(4S)-4-carboxy-4-(15-carboxypentadecanoylamino)butanoyl]-[Ala1,Ser2,His3,Leu4,Ser5,Ala7,Gln8,Ala10,Glu14,His17,Asp21,Pro25,Pro28,Pro29,Asp31,Pro37]-human amylin] ({C16 diacid-γGlu}-ASHLSTAQTARLAEFLHHSSDNFGPILPPTDVGSNTP-NH2)",1.5,1.62
"CC[C@H](C)[C@H](NC(=O)[C@@H]1CCCN1C(=O)CNC(=O)[C@H](Cc1ccccc1)NC(=O)[C@H](CC(N)=O)NC(=O)[C@H](CC(=O)O)NC(=O)[C@H](CO)NC(=O)[C@H](CO)NC(=O)[C@H](Cc1c[nH]cn1)NC(=O)[C@H](Cc1c[nH]cn1)NC(=O)[C@H](CC(C)C)NC(=O)[C@H](Cc1ccccc1)NC(=O)[C@H](CCC(=O)O)NC(=O)[C@H](C)NC(=O)[C@H](CC(C)C)NC(=O)[C@H](CCCNC(=N)N)NC(=O)[C@H](CCC(N)=O)NC(=O)[C@@H](NC(=O)[C@H](CCC(N)=O)NC(=O)[C@H](C)NC(=O)[C@@H](NC(=O)[C@H](CO)NC(=O)[C@H](CC(C)C)NC(=O)[C@H](Cc1c[nH]cn1)NC(=O)[C@H](CO)NC(=O)[C@H](C)NC(=O)CC[C@H](NC(=O)CCCCCCCCCCCCCCCCC(=O)O)C(=O)O)[C@@H](C)O)[C@@H](C)O)C(=O)N[C@@H](CC(C)C)C(=O)N1CCC[C@H]1C(=O)N1CCC[C@H]1C(=O)N[C@H](C(=O)N[C@@H](CC(=O)O)C(=O)N[C@H](C(=O)NCC(=O)N[C@@H](CO)C(=O)N[C@@H](CC(N)=O)C(=O)N[C@H](C(=O)N1CCC[C@H]1C(N)=O)[C@@H](C)O)C(C)C)[C@@H](C)O [Compound 21, N^1-[(4S)-4-carboxy-4-(17-carboxyheptadecanoylamino)butanoyl]-[Ala1,Ser2,His3,Leu4,Ser5,Ala7,Gln8,Glu14,His17,Asp21,Pro25,Pro28,Pro29,Asp31,Pro37]-human amylin] ({C18 diacid-γGlu}-ASHLSTAQTQRLAEFLHHSSDNFGPILPPTDVGSNTP-NH2)",1.89,1.64
